Data published in article PMC6748986, “Potent modulation of the CepR quorum sensing receptor and virulence in a Burkholderia cepacia complex member using non-native lactone ligands” (Scientific Reports, 2019).
“And” between values parts separate entries of the source, which are not always exact repeats. Identical values can stand only once.

Legend:
CepR [1] = biological target: T1, CepR (Burkholderia cenocepacia, UniProt B4EMD0); test: CepR agonism in E. coli β-galactosidase reporter (Ec-reporter) JLD271 [pJN105-cepR + pSC11-cepI]; format: cell-based, B. cenocepacia; details: for Maximal Activation (%): activity for 100 μM C8-AHL set to 100%, error ±10%
T1 sequence (B4EMD0 1-239): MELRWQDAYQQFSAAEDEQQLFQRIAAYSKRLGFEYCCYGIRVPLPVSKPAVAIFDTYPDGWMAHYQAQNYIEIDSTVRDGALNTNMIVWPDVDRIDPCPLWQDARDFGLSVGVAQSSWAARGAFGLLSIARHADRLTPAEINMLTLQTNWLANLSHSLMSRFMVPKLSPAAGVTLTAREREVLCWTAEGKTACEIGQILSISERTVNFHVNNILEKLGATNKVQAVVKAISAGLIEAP
Text: (§1) We began our study by screening the AHL library for CepR modulators using an E. coli-based two plasmid reporter system (Ec-reporter)[38]–[40]. Certain members of the Bcc harbor additional QS systems that are either AHL-based (e.g., BviI/BviR in B. vietnamiensis)[41] or diffusible signal factor (DSF)-based (B. cenocepacia)[42], and at least one member of the Bcc has multiple receptors that respond to C8-AHL (e.g., CepR and CepR2 in B. cenocepacia)[43]. Thus, we reasoned that using a CepR reporter in a heterologous background could simplify our initial analyses. We modified our previously reported E. coli-based two plasmid β-galactosidase reporter system to develop a CepR Ec-reporter (see Methods). The first plasmid, pJN105-cepR, contains CepR from B. cenocepacia under the control of the L-arabinose inducible pBAD promoter. A second plasmid contains a transcriptional fusion of lacZ to the cepI promoter region. The two plasmids were co-transformed into a QS mutant E. coli strain (JLD271 ∆sdiA) that lacks its LuxR-type receptor, SdiA. Using this reporter system, if an exogenously -added compound is able to interact with CepR, this will affect the protein’s interaction with the cepI promoter region and alter β-galactosidase production. Enzyme production, and thereby CepR activity, is then measurable via the degradation of a colorimetric substrate for β-galactosidase. Using this new Ec-reporter, we observed robust activity of CepR in response to its native ligand C8-AHL, with an EC50 of 5 nM (Table 1).
We used the CepR Ec-reporter to perform a primary agonism screen at a single compound concentration (100 μM, or its solubility limit, indicated in Table S1). Thirty-one compounds displaying ≥70% agonistic activity in CepR (relative to C8-AHL) were identified and subjected to dose-response analyses using the Ec-reporter (Table I; see Table S2 for complete screening data and Fig. S3 for dose-response curves).
(§2) E. coli β-galactosidase reporter assays (derived from ref.[63]) and reagents used to obtain primary screening and dose-response data were performed as previously described[22],[60],[64], with the following modifications: E. coli JLD271 (∆sdiA) was co-transformed iteratively with pSC11-cepI and pJN105-cepR via electroporation. A single colony was used to start overnight cultures in LB medium + ampicillin (100 μg/mL) + gentamicin (15 μg/mL). A 1:10 dilution of overnight culture was grown in fresh medium to OD600 = 0.25. A sterile solution of L-arabinose in water (27 mM final concentration) was added to induce protein expression, after which cells were plated in 96-well plates containing varying concentrations of compound (200 μL total volume).
(§3) Cells were grown for 4 h, OD600 was read, 50 μL aliquots from each well were permeabilized in 200 μL Z Buffer, and then 150 μL of this mixture used to measure the cleavage of 25 μL of 4 mg/mL CPRG in phosphate buffered saline (PBS) at 37 °C until positive control wells developed a deep red color (~30 min). For all agonism assays, synthetic compound (100 μM) was screened alongside and compared to the native ligand, C8-AHL (100 μM). For all primary and dose-response antagonism assays, the concentration of native ligand utilized was 10 nM (approximately equal to twice its EC50 value). […] At least 3 separate trials were performed using unique cultures on separate days.

CepR [2] = biological target: T1, CepR; test: CepR antagonism in E. coli β-galactosidase reporter (Ec-reporter), competition against C8-AHL; format: cell-based, B. cenocepacia; details: for Inh% (100-Act%): Table S3, Ec-reporter
Text: as §1
To identify antagonists of CepR, we screened the AHL library (at 100 μM) in competition against the native ligand C8-AHL (at approximately twice its EC50 value, 0.01 μM) in the Ec-reporter. […] The active compounds were subjected to dose-response analyses in the Ec-reporter to obtain IC50 values and assess their relative potencies (Table 2; see Table S3 for complete screening data and Fig. S3 for dose-response curves). One general trend that we noted at the outset was the majority of the antagonists had acyl tails of similar or shorter overall length than CepR’s native ligand, C8-AHL. From this set, the strongest antagonists could be divided into two classes: (i) “short alkyl tail” AHLs or analogs thereof, and (ii) phenylacetanoyl HLs (PHLs). The discovery that the latter compounds were CepR antagonists was perhaps not surprising, as we have found substituted PHLs to strongly antagonize the majority of the LuxR-type receptors studied in our laboratory to date[22],[24],[29],[45],[46].
as §2, §3

[3] = Table S2, Ec-reporter, screening conc. 100 μM
[4] = screening conc. 100 μM, against 10 nM C8-AHL
[5] = Ec-reporter, agonism dose-response

Row | Structure (SMILES) | Act% (CepR [1]; [3]) [%] | Inh% (100-Act%) (CepR [2]; [4]) [%] | also measured
1 | CCCC(=O)CC(=O)NC1CCSC1=O (centres unmarked) [3’O-C6-TL] | 1.6 | 4.0 | –
2 | CCCCCC(=O)CC(=O)NC1CCSC1=O (centres unmarked) [3’O-C8-TL] | 61 | -20 | –
3 | CCCCCCCC(=O)CC(=O)N[C@H]1CCOC1=O [3’O-C10-AHL, reference compound] | 110 | -60 | EC50 (CepR [1]; Table S2, Ec-reporter): 2300 nM
4 | CCCCCCCCCC(=O)CC(=O)Nc1ccccc1 [3’O-C12-analine, reference compound] | 52 | 16 | –
5 | CCCCCCCCCCCCCC(=O)CC(=O)NC1CCOC1=O (centres unmarked) [3’O-C16-AHL, reference compound] | 8.3 | -50 | –
6 | CCCCCCCCCC(O)CC(=O)N[C@H]1CCOC1=O (some centres unmarked) [3’OH-C12-AHL, reference compound] | 52 | 0.0 | –
7 | CCCCCCCCCCCC(O)CC(=O)N[C@@H]1CCOC1=O (some centres unmarked) [3’OH-C14-AHL, reference compound] | 33 | -40 | –
8 | CCCCCCCCCCCCCC(O)CC(=O)NC1CCOC1=O (centres unmarked) [3’OH-C16-AHL, reference compound] | 8.0 | -50 | –
9 | CCCCCCCCS(=O)(=O)N[C@H]1CCOC1=O [Compound A13] | 108 | 17 | CepR agonism in words (CepR [1]; Ec-reporter): failed to activate CepR; EC50 (CepR [1]; [5]): 150 nM; Maximal Activation (%) (CepR [1]; Ec-reporter): 110%
10 | O=C(CCCc1ccccc1)N[C@@H]1CCOC1=O [Compound B3] | -0.4 | -30 | –
11 | O=C(Cc1ccc(Br)cc1)N[C@@H]1CCOC1=O [Compound B4] | -0.5 | 0.0 | –
12 | O=C(CCCc1c[nH]c2ccccc12)N[C@@H]1CCOC1=O [Compound B5] | 7.2 | -30 | –
13 | O=C(N[C@H]1CCOC1=O)c1ccc(Br)cc1 [Compound B6] | 56 | 18 | –
14 | O=C(N[C@H]1CCOC1=O)c1ccccc1 [Compound B8] | 10 | 1.0 | –
15 | O=C(CCc1ccccc1)N[C@H]1CCOC1=O [Compound B9] | 88 | -40 | EC50 fold higher than those for substituted PPHLs (CepR [1]; Ec-reporter): ~ 1000 fold; EC50 (CepR [1]; [5]): 1000 nM; Maximal Activation (%) (CepR [1]; Ec-reporter): 88%
16 | O=C(C=Cc1ccccc1)NC1CCOC1=O (centres unmarked) [Compound B10] | 60 | 11 | –
17 | O=C(Cc1c[nH]c2ccccc12)N[C@H]1CCOC1=O [Compound B13] | -1.1 | 22 | –
18 | O=C(CCc1c[nH]c2ccccc12)N[C@H]1CCOC1=O [Compound B14] | 96 | -40 | –
19 | O=C(Cc1ccccc1)N[C@H]1CCOC1=O [Compound C1] | 0.0 | – | CepR antagonism in words (CepR [2]; Ec-reporter): inactive; Maximal Inhibition (%) (CepR [2]; Ec-reporter, against 10 nM C8-AHL): 8%
20 | O=C(Cc1ccc(F)cc1)N[C@H]1CCOC1=O [Compound C2] | 0.1 | 4.0 | CepR antagonism in words (CepR [2]; Ec-reporter): inactive as antagonists
21 | O=C(Cc1cccc(F)c1)N[C@H]1CCOC1=O [Compound C3] | 0.2 | 20 | CepR antagonism in words (CepR [2]; Ec-reporter): inactive as antagonists

Row | Structure (SMILES) | Act% (CepR [1]; [3]) [%] | Inh% (100-Act%) (CepR [2]; [4]) [%] | also measured
22 | O=C(Cc1ccccc1F)N[C@H]1CCOC1=O [Compound C4] | 0.1 | 3.0 | CepR antagonism in words (CepR [2]; Ec-reporter): inactive as antagonists
23 | O=C(Cc1ccc(Cl)cc1)N[C@H]1CCOC1=O [Compound C5] | 0.1 | 25 | –
24 | CCCCCCC(=O)N[C@H]1CCOC1=O [Compound C7-AHL, reference compound] | 106 | -10 | –
25 | CCCCCCCCCC(=O)N[C@H]1CCOC1=O [Compound C10-AHL, decanoyl L-homoserine lactone, reference compound] | 87 | -30 | EC50 (CepR [1]; [5]): 109 nM and 110 nM; Maximal Activation (%) (CepR [1]; Ec-reporter): 87%
26 | CCCCCCCCCC(=O)NC1CCCC1 [Compound C10-CPA, reference compound] | 48 | 4.0 | –
27 | O=C(Cc1ccc(I)cc1)N[C@H]1CCOC1=O [Compound C10] | 29 | -10 | –
28 | CCCCCCCCCCCC(=O)N[C@H]1CCOC1=O [Compound C12-AHL, Dodecanoyl L-homoserine lactone, reference compound] | 98 | -30 | EC50 (CepR [1]; [5]): 310 nM; Maximal Activation (%) (CepR [1]; Ec-reporter): 98%
29 | CCCCCCCCCCCCCC(=O)N[C@H]1CCOC1=O [Compound C14-AHL, tetradecanoyl L-homoserine lactone, reference compound] | 49 | -10 | CepR agonism in words (CepR [1]; Ec-reporter): inactive; Maximal Activation (%) (CepR [1]; Ec-reporter): 49%
30 | CCCCCCCCCCCCCCCC(=O)N[C@H]1CCOC1=O [Compound C16-AHL, hexadecanoyl L-homoserine lactone, reference compound] | – | – | CepR agonism in words (CepR [1]; Ec-reporter): inactive; Maximal Activation (%) (CepR [1]; Ec-reporter): 35%; Act% (CepR [1]; Table S2, Ec-reporter, screening conc. 25 μM): 35%; Inh% (100-Act%) (CepR [2]; screening conc. 25 μM): -10%
31 | O=C(Cc1c(F)c(F)c(F)c(F)c1F)N[C@H]1CCOC1=O [Compound C16] | 0.1 | -30 | –
32 | [N-]=[N+]=Nc1ccc(CC(=O)N[C@H]2CCOC2=O)cc1 [Compound C17] | 1.0 | 26 | –
33 | O=C(Cc1ccc(-c2ccccc2)cc1)N[C@H]1CCOC1=O [Compound C18] | 1.4 | -20 | –
34 | Cc1ccc(CC(=O)N[C@H]2CCOC2=O)cc1 [Compound C19] | -1.6 | -20 | –
35 | O=C(Cc1ccc(C(F)(F)F)cc1)N[C@H]1CCOC1=O [Compound C20] | 0.3 | -52 | –
36 | Nc1ccc(CC(=O)N[C@H]2CCOC2=O)cc1 [Compound C21] | 21 | -20 | –
37 | CC(C)(C)OC(=O)Nc1ccc(CC(=O)N[C@H]2CCOC2=O)cc1 [Compound C22] | 1.1 | -70 | –
38 | O=C(Cc1ccc(O)cc1)N[C@H]1CCOC1=O [Compound C23] | -0.5 | -10 | –
39 | CC(C)(C)OC(=O)NCCCCC(=O)N[C@H]1CCOC1=O [Compound D1] | 16 | 11 | –
40 | O=C(CCc1ccco1)N[C@H]1CCOC1=O [Compound D2] | 70 | 0.0 | –
41 | O=C(CCc1cccs1)N[C@H]1CCOC1=O [Compound D3] | 87 | -40 | –
